Like-named read-outs stand apart in the source and are kept apart here.

The source of these data is patent US8445522B2, “Substituted 2-(4-pyridyl)benzoxazoles, and compositions thereof, for use in arthropod pest control” (Sumitomo Chemical Company, Limited, priority 2009, dated 2013).

What all share (type): in vivo
Experiment [1] concerns cotton aphids. Nature of the experiment: Test Example 3: plant foot irrigation of cucumber seedling in plastic cup, cotton aphids inoculated after seven days. To be noted: 144 h, read-out: Control value. The method, then:
(§1) The formulations were diluted with water so that the concentration of the active ingredient became 500 ppm and thus test diluents were prepared. On the other hand, a plant foot of cucumber seedling (second true leaf development stage) planted in a plastic cup was irrigated with any one of diluents (5 ml). The seedling was kept in a green house of 25° C. for seven days. The cucumber leaves were inoculated with 30 cotton aphids (all stages) and kept in the green house for further six days. Thereafter, the number of survived cotton aphids parasitic on the cucumber leaves was counted, and the control value was calculated by the following equation. Control value(%)={1−(Cb×Tai)/(Cai×Tb)}×100 wherein each character represents the following meaning: Cb: number of insects in non-treated section before treatment Cai: number of insects in non-treated section during observation Tb: number of insects in treated section before treatment Tai: number of insects in treated section during observation

The test system of experiment [2] is halymorpha halys. The experiment can be described thus: Test Example 7: treated tissue paper with budding soybeans, halymorpha halys mortality. To be noted: 168 h. The method, then: Formulations were prepared by the method described in Formulation Example 1 with respect to each of the active compound 13, the active compound 15, the active compound 18, the active compound 35, the active compound 37, the active compound 44, the active compound 65, the active compound 68 and the active compound 82. The formulations were diluted with water so that the concentration of the active ingredient became 100 ppm and thus test diluents were prepared.
On the other hand, a tissue paper placed in an aluminum cup was irrigated with any one of the above-mentioned diluents (5 ml). The tissue paper was placed in a polyethylene cup together with three budding soybeans. In the polyethylene cup, ten halymorpha halys were released, and the polyethylene cup was lidded by a polyethylene lid. Seven days after the releasing of the insects, the number of survived insects was counted, and the mortality was calculated by the following equation. Mortality(%)=(number of dead insects/number of insects to be tested)×100

For experiment [3], the system named is cotton aphids. The experiment can be described thus: Test Example 2: plant foot irrigation of cucumber seedling in urethane mat, cotton aphids inoculated one day after treatment. Conditions: 168 h, read-out: Control value. The protocol: as §1, with “urethane mat” for “plastic cup”, “One day after the treatment, the” for “The seedling was kept in a green house of 25° C. for seven days. The”, “stages). Further seven days after,” for “stages) and kept in the green house for further six days. Thereafter,”

Experiment [4] relates to rice brown planthopper. Nature of the experiment: Test Example 6: plant foot irrigation of rice plant seedling, rice brown planthopper released after seven days. To be noted: Nilaparvata lugens, 144 h, read-out: Control value. The protocol:
The formulations were diluted with water so that the concentration of the active ingredient became 500 ppm and thus test diluents were prepared. On the other hand, a plant foot of rice plant seedling (two weeks after seeding, second leaf development stage) planted in a plastic cup was irrigated with any one of diluents (5 ml). The seedling was kept in a green house of 25° C. for seven days. Thirty first-instars of rice brown planthopper were released to the seedling, which was kept in the green house at 25 C for six days. Thereafter, the number of survived rice brown planthopper parasitic on rice plant leaves was counted, and the control value was calculated by the following equation. Control value(%)={1−(Cb×Tai)/(Cai×Tb)}×100 wherein each character represents the following meaning: Cb: number of insects in non-treated section before treatment Cai: number of insects in non-treated section during observation Tb: number of insects in treated section before treatment Tai: number of insects in treated section during observation

For experiment [5], the system named is cotton aphids (Aphis gossypii Glover). The experiment can be described thus: Test Example 1: test diluent scattered on cucumber seedling inoculated with cotton aphids. Conditions: 120 h, read-out: Control value. The method, then: The formulations were diluted with water so that the concentration of the active ingredient became 500 ppm and thus test diluents were prepared. On the other hand, a cucumber seedling (second true leaf development stage) planted in a plastic cup was inoculated with about 30 cotton aphids (Aphis gossypii Glover) and allowed to stand for one day. To the seedling, any one of the diluents (10 ml) was scattered. Five days after the scattering, the number of survived cotton aphids parasitic on the cucumber leaves was counted, and the control value was calculated by the following equation. Control value(%)={1−(Cb×Tai)/(Cai×Tb)}×100 wherein each character represents the following meaning: Cb: the number of insects in non-treated section before treatment Cai: the number of insects in non-treated section during observation Tb: the number of insects in treated section before treatment Tai: the number of insects in treated section during observation

For experiment [6], the system named is tobacco whitefly. The experiment can be described thus: Test Example 4: test diluent scattered on tomato seedling with hatched tobacco whitefly larvae. To be noted: 168 h, read-out: Control value. The protocol: The formulations were diluted with water so that the concentration of the active ingredient became 500 ppm and thus test diluents were prepared. On the other hand, by releasing tobacco whitefly imagos to a tomato seedling planted in a plastic cup to allow them to lay eggs for about 24 hours. The tomato seedling was kept in a green house for eight days. At the stage in which larvae hatched from the laid eggs, any of the test diluents was scattered at the rate of 10 ml/cup. The tomato seedling was kept in the greenhouse at 25° C. for seven days. The number of survived larvae on tomato leaves was counted, and the control value was calculated by the following equation. Control value(%)={1−(Cb×Tai)/(Cai×Tb)}×100 wherein each character represents the following meaning: Cb: number of insects in non-treated section before treatment Cai: number of insects in non-treated section during observation Tb: number of insects in treated section before treatment Tai: number of insects in treated section during observation

Experiment [7] concerns rice brown planthopper. Nature of the experiment: Test Example 5: test diluent scattered on rice plant seedling, rice brown planthopper released. To be noted: Nilaparvata lugens, 144 h, read-out: Control value. The method, then: The formulations were diluted with water so that the concentration of the active ingredient became 500 ppm and thus test diluents were prepared. On the other hand, to a rice plant seedling (two weeks after seeding, second leaf development stage) planted in a plastic cup, any one of the diluents (10 ml) was scattered. After the drug solution scattered on the rice plant was dried, 30 first-instars of rice brown planthopper were released on the rice plant, which was kept in the green house at 25° C. for six days. Thereafter, the number of rice brown planthopper parasitic on rice plant was counted and the control value was calculated by the following equation. Control value(%)={1−(Cb×Tai)/(Cai×Tb)}×100 wherein each character represents the following meaning: Cb: number of insects in non-treated section before treatment Cai: number of insects in non-treated section during observation Tb: number of insects in treated section before treatment Tai: number of insects in treated section during observation

Setting [8] is: 500 ppm, 5 ml plant foot irrigation, urethane mat, aphids inoculated one day after treatment, counted seven days after.
[9] abbreviates: 500 ppm, 5 ml plant foot irrigation, plastic cup, aphids inoculated after seven days at 25° C., counted six days after.
The mark [10] stands for this setting: 500 ppm, 5 ml plant foot irrigation of rice seedling, first-instars released after seven days, counted six days after.
[11] abbreviates: 100 ppm, 5 ml on tissue paper with budding soybeans, ten insects, counted seven days after releasing, read-out: Mortality.
The mark [12] stands for this setting: 500 ppm, 10 ml scattered on rice plant seedling, 30 first-instars released, counted after six days at 25° C.
Setting [13] is: 500 ppm, 10 ml/cup scattered on tomato seedling at larvae stage, counted after seven days at 25° C.

In the case of `FC(F)(F)c1ccc2oc(-c3ccncc3)nc2c1` [active compound 13, 2-(pyridin-4-yl)-5-(trifluoromethyl)benzoxazole], in experiment [1], the pest or weed control at 500 ppm was at least 90%. Besides, the mortality (as a rule, the percentage killed) at 100 ppm in experiment [2] is at least 80%.

For `[O-][n+]1ccc(-c2nc3cc(C(F)(F)F)ccc3o2)cc1` [active compound 14, 4-[5-(trifluoromethyl)benzoxazole-2-yl]pyridine N-oxide], the pest or weed control at 500 ppm in experiment [3] (setting [8]), in experiment [1] (setting [9]) and in experiment [4] (setting [10]) was at least 90% each time.

As for `FC(F)(F)c1ccc2nc(-c3ccncc3)oc2c1` [active compound 15, 2-(pyridin-4-yl)-6-(trifluoromethyl)benzoxazole], in experiment [2] (setting [11]), the mortality at 100 ppm was at least 80%.

On to `FC(F)(F)c1ccc2oc(-c3ccncc3Cl)nc2c1` [active compound 18, 2-(3-chloropyridin-4-yl)-5-(trifluoromethyl)benzoxazole], for which the pest or weed control at 500 ppm in experiment [3] and in experiment [4] was at least 90% in each case. In experiment [2], this compound displayed a mortality at 100 ppm of at least 80%.

Regarding `[O-][n+]1ccc(-c2nc3cc(C(F)(F)F)ccc3o2)c(Cl)c1` [active compound 19, 3-chloro-4-[5-(trifluoromethyl)benzoxazole-2-yl]pyridine N-oxide], the pest or weed control at 500 ppm in experiment [3] (setting [8]) and in experiment [1] (setting [9]) was at least 90% throughout.

In the case of `Cc1c[n+]([O-])ccc1-c1nc2cc(C(F)(F)F)ccc2o1` [active compound 24, 3-methyl-4-[5-(trifluoromethyl)benzoxazole-2-yl]pyridine N-oxide], the pest or weed control at 500 ppm in experiment [1] (setting [9]) and in experiment [4] (setting [10]) was at least 90% throughout.

With `Fc1cnccc1-c1nc2cc(C(F)(F)F)ccc2o1` [active compound 25, 2-(3-fluoropyridin-4-yl)-5-(trifluoromethyl)benzoxazole], the pest or weed control at 500 ppm in experiment [1] (setting [9]) and in experiment [4] (setting [10]) was at least 90% in each case.

For `[O-][n+]1ccc(-c2nc3cc(C(F)(F)F)ccc3o2)c(I)c1` [active compound 30, 3-iode-4-[5-(trifluoromethyl)benzoxazole-2-yl]pyridine N-oxide], the pest or weed control at 500 ppm in experiment [3] (setting [8]), in experiment [1] (setting [9]) and in experiment [4] (setting [10]) was at least 90% throughout.

As to `CCc1cnccc1-c1nc2cc(C(F)(F)F)ccc2o1` [active compound 35, 2-(3-ethylpyridin-4-yl)-5-(trifluoromethyl)benzoxazole], the pest or weed control at 500 ppm in experiment [5], in experiment [3], in experiment [6], in experiment [7] and in experiment [4] was at least 90% each time. For the same compound, the mortality at 100 ppm in experiment [2] was at least 80%.

Turning to `CC(C)(C)Sc1cnccc1-c1nc2cc(C(F)(F)F)ccc2o1` [active compound 44, 2-(3-tert-butylthiopyridin-4-yl)-5-(trifluoromethyl)benzoxazole], the pest or weed control at 500 ppm in experiment [4] is at least 90%. The mortality at 100 ppm in experiment [2] is at least 80%.

For `FC(F)(F)c1ccc2oc(-c3ccncc3-n3cccn3)nc2c1` [active compound 58, 2-[3-(pyrazole-1-yl)pyridin-4-yl]-5-(trifluoromethyl)benzoxazole], the pest or weed control at 500 ppm in experiment [3] (setting [8]), in experiment [1] (setting [9]), in experiment [7] (setting [12]) and in experiment [4] (setting [10]) was at least 90% each time.

For `FC(F)(F)c1ccc2oc(-c3ccncc3-n3cncn3)nc2c1` [active compound 63, 2-[3-(1,2,4-triazole-1-yl)pyridin-4-yl]-5-(trifluoromethyl)benzoxazole], the pest or weed control at 500 ppm in experiment [3] (setting [8]), in experiment [1] (setting [9]) and in experiment [6] (setting [13]) was at least 90% each time.

For `FC(F)(F)C(F)(F)c1ccc2oc(-c3ccncc3)nc2c1` [active compound 65, 5-(pentafluoroethyl)-2-(pyridin-4-yl)-benzoxazole], in experiment [2] (setting [11]), the mortality at 100 ppm was at least 80%.

`FC(F)(F)C(F)(c1ccc2oc(-c3ccncc3Cl)nc2c1)C(F)(F)F` [active compound 68, 2-(3-chloropyridin-4-yl)-5-(heptafluoroisopropyl)benzoxazole]: in experiment [7] (setting [12]), the pest or weed control at 500 ppm was at least 90%. Moreover, the mortality at 100 ppm in experiment [2] (setting [11]) was at least 80%.

In the case of `CC(=O)Nc1cnccc1-c1nc2cc(C(F)(F)F)ccc2o1` [active compound 82, N-[4-(5-trifluoromethylbenzoxazole-2-yl)pyridin-3-yl]acetamide], the mortality at 100 ppm in experiment [2] (setting [11]) was at least 80%.

`FC(F)(F)c1ccc2oc(-c3ccncc3C(F)(F)F)nc2c1` [active compound 125, 5-trifluoromethyl-2-[3-(trifluoromethyl)pyridin-4-yl]-benzoxazole]: the pest or weed control at 500 ppm is at least 90% in experiment [5] (500 ppm active ingredient, 10 ml scattered on cucumber seedling, counted five days after scattering); at least 90% in experiment [3] (setting [8]); at least 90% in experiment [1] (setting [9]); at least 90% in experiment [6] (setting [13]); at least 90% in experiment [4] (setting [10]).

For the compound `CS(=O)(=O)c1cnccc1-c1nc2cc(C(F)(F)F)ccc2o1` [active compound 135, 2-[3-(methanesulfonyl)pyridin-4-yl]-5-(trifluoromethyl)benzoxazole], the pest or weed control at 500 ppm in experiment [1] (setting [9]) was at least 90%.
